# From PMC2746568 (Journal of medicinal chemistry, 2009)
# “Also recorded” adds a separate entry of the source.
# What was measured:
# [1] = In vitro human microsomal metabolism; conditions: for Putative metabolites: human liver microsomes, LC/MS; for Predicted EH (hepatic extraction ratio): estimated from measured rate of degradation in vitro; for Predicted EH (hepatic extraction ratio) / microsomal CLint at 1 µM: human; for microsomal CLint at 1 µM: pooled human liver microsomes
# [2] = target: PfDHODH (Plasmodium falciparum, UniProt Q08210); conditions: unsubstituted phenyl; cited from earlier work
# [3] = in vitro; conditions: human, microsomes
# [4] = Mouse pharmacokinetics after oral dosing; assay type: in vivo, mice; conditions: for adverse reactions in plasma exposure study: single and repeat dosing; for plasma levels reached after single oral dose: uninfected mice
# [5] = test system: P. berghei; assay: P. berghei mouse in vivo efficacy testing; set-up: species or system Plasmodium berghei in mice; conditions: for ill effects from compound administration: oral 100 mg/kg/dose every 4 h × 10, then every 6 h × 6; for impact on parasite blood levels in P. berghei mouse model: oral 100 mg/kg/dose every 4 hours × 10 doses, then every 6 hours × 6 doses
# [6] = test system: Pf 3D7 cells; conditions: read-out: EC50 against P. falciparum in whole cell assays; cited from earlier work
# [7] = target: PbDHODH (Plasmodium berghei, UniProt A0A509AEH5); assay: PbDHODH steady-state inhibition assay; assay type: biochemical; conditions: PbDHODH vs PfDHODH
# Chain of PfDHODH (Q08210 158-569): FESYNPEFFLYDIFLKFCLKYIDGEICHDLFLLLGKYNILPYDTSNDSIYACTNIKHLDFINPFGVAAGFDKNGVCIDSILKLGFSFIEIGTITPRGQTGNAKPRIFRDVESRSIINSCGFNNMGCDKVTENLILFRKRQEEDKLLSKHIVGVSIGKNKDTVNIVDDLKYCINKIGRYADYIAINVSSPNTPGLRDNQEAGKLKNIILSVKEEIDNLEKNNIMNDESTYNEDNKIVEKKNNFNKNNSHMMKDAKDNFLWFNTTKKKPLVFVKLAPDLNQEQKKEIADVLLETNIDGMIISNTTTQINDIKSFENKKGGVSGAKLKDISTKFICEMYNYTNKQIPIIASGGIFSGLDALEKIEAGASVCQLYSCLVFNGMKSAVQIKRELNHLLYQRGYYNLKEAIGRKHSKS
structure (smiles),measurement,setting,value
"Cc1cc(Nc2ccc(C(F)(F)F)c(F)c2)n2ncnc2n1 [Compound 47, (3-Fluoro-4-trifluoromethyl-phenyl)-(5-methyl-[1,2,4]triazolo[1,5-a]pyrimidin-7-yl)-amine]",Putative metabolites,[1],no metabolites were detected; also recorded: None detected
"Cc1cc(Nc2ccc(F)c(C)c2)n2ncnc2n1 [Compound 40, (4-Fluoro-3-methyl-phenyl)-(5-methyl-[1,2,4]triazolo[1,5-a]pyrimidin-7-yl)-amine]",Predicted EH (hepatic extraction ratio),[1],0.64
same,microsomal CLint at 1 µM,[1],31 µL/min/mg
"Cc1cc(Nc2ccc(C#N)c(C(F)(F)F)c2)n2ncnc2n1 [Compound 45, 4-(5-Methyl-[1,2,4]triazolo[1,5-a]pyrimidin-7-ylamino)-2-trifluoromethyl-benzonitrile]",Putative metabolites,[1],no metabolites were detected; also recorded: None detected
Cc1cc(Nc2ccccc2)n2ncnc2n1 [Compound 4],activity (in words),[2],completely inactive
"Cc1cc(Nc2ccc(C(F)(F)F)cc2)n2ncnc2n1 [Compound 21, (5-Methyl-[1,2,4]triazolo[1,5-a]pyrimidin-7-yl)-(4-trifluoromethyl-phenyl)-amine]",microsomal CLint,[3],7.5 µL/min/mg
same,time plasma concentrations maintained above 1 µM (0.29 µg/mL),"[4]; mice, single oral dose 50 mg/kg",16 h
same,adverse reactions after oral administration,"[4]; mice, single oral dose 20 or 50 mg/kg",No adverse reactions
same,adverse reactions in efficacy study,"[5]; infected mice, 50 mg/kg oral q.d. or b.i.d. for 4 days",No adverse reactions
"Cc1cc(Nc2cccc(Cl)c2)n2ncnc2n1 [Compound 14, (3-Chloro-phenyl)-(5-methyl-[1,2,4]triazolo[1,5-a]pyrimidin-7-yl)-amine]",microsomal CLint,[3],38 µL/min/mg
"Cc1cc(Nc2ccc3ccccc3c2)n2ncnc2n1 [Compound 2, (5-methyl-[1,2,4]triazolo[1,5-a]pyrimidin-7-yl)-naphthalen-2-yl-amine]",EC50,[6],80 nM
same,microsomal CLint,[3],96 µL/min/mg
same,plasma levels at 240 min on day 4 of repeat dosing,"[4]; mice, 50 mg/kg oral 1x daily repeat dosing",nearly undetectable
same,adverse reactions in plasma exposure study,"[4]; mice, 50 mg/kg oral",No adverse reactions
same,plasma levels reached after single oral dose,[4]; 50 mg/kg oral single dose,2000 to 3000 nM
same,ill effects from compound administration,[5]; infected mice,no major ill effects
same,impact on parasite blood levels in P. berghei mouse model,[5]; 100 mg/kg,no activity; also recorded: neither compound had any impact
"Cc1cc(Nc2ccc3cc4ccccc4cc3c2)n2ncnc2n1 [Compound 3, (5-Methyl-[1,2,4]triazolo[1,5-a]pyrimidin-7-yl)-anthracen-2-yl-amine]",plasma concentrations after last dose of repeat dosing relative to single dose,"[4]; mice, 50 mg/kg oral for 2 to 4 days",significantly reduced
same,plasma concentrations maintained over 240 min,"[4]; mice, 50 mg/kg oral single dose",1000 to 3000 nM
same,observed plasma levels,"[4]; mice, 50 mg/kg oral, repeat dosing",~ 1 µM
same,adverse reactions in plasma exposure study,"[4]; mice, 50 mg/kg oral",No adverse reactions
same,plasma levels reached after single oral dose,[4]; 50 mg/kg oral single dose,2000 to 3000 nM
same,Predicted EH (hepatic extraction ratio),[1],0.70
same,microsomal CLint at 1 µM,[1],37 µL/min/mg
same,IC50 fold higher for PbDHODH than for PfDHODH,[7],66 fold
same,ill effects from compound administration,[5]; infected mice,no major ill effects
same,impact on parasite blood levels in P. berghei mouse model,[5],neither compound had any impact
"Cc1cc(Nc2cccc(F)c2)n2ncnc2n1 [Compound 13, (3-Fluoro-phenyl)-(5-methyl-[1,2,4]triazolo[1,5-a]pyrimidin-7-yl)-amine]",Predicted EH (hepatic extraction ratio),[1],0.50
same,microsomal CLint at 1 µM,[1],18 µL/min/mg
"Cc1cc(Nc2cccc(C(F)(F)F)c2)n2ncnc2n1 [Compound 16, (5-Methyl-[1,2,4]triazolo[1,5-a]pyrimidin-7-yl)-(3-trifluoromethyl-phenyl)-amine]",Predicted EH (hepatic extraction ratio),[1],0.62
same,microsomal CLint at 1 µM,[1],29 µL/min/mg
"Cc1cc(Nc2ccc(Cl)c(C(F)(F)F)c2)n2ncnc2n1 [Compound 41, (4-Chloro-3-trifluoromethyl-phenyl)-(5-methyl-[1,2,4]triazolo[1,5-a]pyrimidin-7-yl)-amine]",Predicted EH (hepatic extraction ratio),[1],0.42
same,microsomal CLint at 1 µM,[1],13 µL/min/mg
"Cc1cc(Nc2ccc(Br)c(C(F)(F)F)c2)n2ncnc2n1 [Compound 42, (4-Bromo-3-trifluoromethyl-phenyl)-(5-methyl-[1,2,4]triazolo[1,5-a]pyrimidin-7-yl)-amine]",Predicted EH (hepatic extraction ratio),[1],0.43
same,microsomal CLint at 1 µM,[1],14 µL/min/mg
